From PMC6117091, “The C. difficile clnRAB operon initiates adaptations to the host environment in response to LL-37” (PLoS Pathogens, 2018)
In brackets after ≈: the same amount, converted by molar mass.

Tests used:
[1] = test system: C. difficile clnR Tn::clnRAB; assay: Growth in minimal medium with LL-37, maximum doubling time; settings: mean ± SD, n ≥ 3
[2] = test system: C. difficile clnR and clnA mutants; assay: Growth in BHIS with LL-37; settings: 2.5 μg/ml LL-37 in BHIS, versus parent strain
[3] = test system: C. difficile clnAB mutant (MC935); assay: Minimum bactericidal concentration (MBC); assay type: cell-based, Clostridioides difficile; settings: 1:10 dilution into BHIS, 24 h, 37°C, anaerobic
[4] = test system: tcdA, tcdB, sigD, tcdR, ilvC, CD0341 expression in C. difficile 630Δerm; assay: Toxin and regulator gene expression by qRT-PCR in LL-37
[5] = test system: C. difficile clnR Tn::clnRAB; assay: qRT-PCR of selected RNA-seq transcripts in LL-37; settings: 2 µg/ml LL-37; normalized to 630∆erm in BHIS; mean ± SEM, n ≥ 3
[6] = test system: clnR expression in C. difficile 630Δerm; assay: clnR expression by qRT-PCR after exposure to antimicrobials (induction specificity); settings: 2 μg/ml, BHIS; normalized to 630Δerm in BHIS without antimicrobials; mean of three replicates ± SEM
C. difficile clnR mutant [7] = assay: Growth in minimal medium with LL-37, maximum doubling time; settings: mean ± SD, n ≥ 3
[8] = test system: C. difficile clnAB Tn::clnRAB; assay: as above; settings: mean ± SD, n ≥ 3
[9] = test system: C. difficile clnAB Tn::clnRAB; assay: qRT-PCR of selected RNA-seq transcripts in LL-37; settings: 2 µg/ml LL-37; normalized to 630∆erm in BHIS; mean ± SEM, n ≥ 3
[10] = test system: C. difficile clnR and clnAB mutants; assay: Growth in minimal medium with LL-37 (growth curves); settings: 0.5 μg/ml LL-37; base MM, MM with mannitol, NAG, EA; versus parent strain
C. difficile clnR mutant [11] = assay: qRT-PCR of selected RNA-seq transcripts in LL-37; settings: 2 µg/ml LL-37; normalized to 630∆erm in BHIS; mean ± SEM, n ≥ 3
C. difficile 630Δerm [12] = assay: Growth in minimal medium with LL-37, maximum doubling time; settings: mean ± SD, n ≥ 3
C. difficile 630Δerm [13] = assay: qRT-PCR of selected RNA-seq transcripts in LL-37; settings: 2 µg/ml LL-37; normalized to 630∆erm in BHIS; mean ± SEM, n ≥ 3
[14] = 0.5 µg/ml LL-37, MM + 30 mM NAG
[15] = 0.5 µg/ml LL-37, MM + 30 mM ethanolamine
[16] = 0.5 µg/ml LL-37, MM + 30 mM fructose
[17] = 0.5 µg/ml LL-37, MM + 30 mM glucose
[18] = 0.5 µg/ml LL-37, MM + 30 mM mannitol
[19] = 0.5 µg/ml LL-37, MM + 30 mM mannose
[20] = 2 μg/ml LL-37, BHIS, log phase, wild-type cells, p < 0.05
[21] = 2 µg/ml LL-37, normalized to 630∆erm in BHIS, mean of three replicates ± SEM
[22] = 0.5 µg/ml LL-37, MM + 30 mM NAG, § p < 0.05 vs no LL-37

CC[C@H](C)[C@H](NC(=O)[C@H](CCCCN)NC(=O)[C@H](CCC(=O)O)NC(=O)[C@H](CCCCN)NC(=O)[C@H](CO)NC(=O)[C@H](CCCCN)NC(=O)[C@H](CCCNC(=N)N)NC(=O)[C@H](Cc1ccccc1)NC(=O)[C@H](Cc1ccccc1)NC(=O)[C@H](CC(=O)O)NC(=O)CNC(=O)[C@H](CC(C)C)NC(=O)[C@@H](N)CC(C)C)C(=O)NCC(=O)N[C@@H](CCCCN)C(=O)N[C@@H](CCC(=O)O)C(=O)N[C@@H](Cc1ccccc1)C(=O)N[C@@H](CCCCN)C(=O)N[C@@H](CCCNC(=N)N)C(=O)N[C@H](C(=O)N[C@H](C(=O)N[C@@H](CCC(N)=O)C(=O)N[C@@H](CCCNC(=N)N)C(=O)N[C@H](C(=O)N[C@@H](CCCCN)C(=O)N[C@@H](CC(=O)O)C(=O)N[C@@H](Cc1ccccc1)C(=O)N[C@@H](CC(C)C)C(=O)N[C@@H](CCCNC(=N)N)C(=O)N[C@@H](CC(N)=O)C(=O)N[C@@H](CC(C)C)C(=O)N[C@H](C(=O)N1CCC[C@H]1C(=O)N[C@@H](CCCNC(=N)N)C(=O)N[C@H](C(=O)N[C@@H](CCC(=O)O)C(=O)N[C@@H](CO)C(=O)O)[C@@H](C)O)C(C)C)[C@@H](C)CC)C(C)C)[C@@H](C)CC [LL-37]
Doubling time [1, 14]: 111.1 ± 16.5 min | Doubling time [1, 15]: 93.4 ± 12.2 min | Doubling time [1, 16]: 80.4 ± 7.4 min | Doubling time [1, 17]: 76.4 ± 5.4 min | Doubling time [1, 18]: 75.6 ± 5.3 min | Doubling time [1, 19]: 80.4 ± 8.3 min | Doubling time ([1]; 0.5 µg/ml LL-37, base MM, § p < 0.05 vs no LL-37): 84.8 ± 4.5 min | growth (in words) [2]: grew slightly better than the parent strain | MBC [3]: 20 mg/L (≈ 4.45 µM) | tcdA expression, fold increase [4, 20]: 4.6 fold | tcdB expression, fold increase [4, 20]: 2.2 fold | sigD fold-change in expression in LL-37 [4, 21]: 0.95 ± 0.08 | tcdR fold-change in expression in LL-37 [4, 21]: 1.47 ± 0.44 | ilvC fold-change in expression in LL-37 ([4]; 2 µg/ml LL-37, normalized to 630∆erm in BHIS, mean of three replicates ± SEM, indicates CodY activity): 2.21 ± 0.20 | ilvC expression, fold increase ([4]; LL-37, p < 0.05): 2.2 fold | CD630_02840 relative expression [5]: 602.6 ± 455.6 | cstA (CD630_26000) relative expression [5]: 36.3 ± 21.3 | grdA (CD630_23520) relative expression [5]: 1649.2 ± 814.6 | mtlA (CD630_23340) relative expression [5]: 0.6 ± 0.2 | Relative clnR expression [6]: 530.1 ±110.5 | Doubling time (C. difficile clnR mutant [7]; [14]): 86.6 ± 2.5 min | Doubling time (C. difficile clnR mutant [7]; [15]): 84.9 ± 4.6 min | Doubling time (C. difficile clnR mutant [7]; [16]): 72.4 ± 0.9 min | Doubling time (C. difficile clnR mutant [7]; [17]): 74.0 ± 1.7 min | Doubling time (C. difficile clnR mutant [7]; [18]): 67.3 ± 1.5 min | Doubling time (C. difficile clnR mutant [7]; [19]): 78.4 ± 4.9 min | Doubling time (C. difficile clnR mutant [7]; 0.5 µg/ml LL-37, base MM): 74.1 ± 4.8 min | Doubling time [8, 22]: 83.6 ± 1.7 min | Doubling time [8, 15]: 84.0 ± 6.7 min | Doubling time [8, 16]: 69.8 ± 2.5 min | Doubling time [8, 17]: 70.8 ± 4.8 min | Doubling time [8, 18]: 66.4 ± 1.8 min | Doubling time [8, 19]: 72.6 ± 3.1 min | Doubling time ([8]; 0.5 µg/ml LL-37, base MM): 76.4 ± 2.6 min | cstA (CD630_26000) relative expression [9]: 1.3 ± 0.2 | grdA (CD630_23520) relative expression [9]: 1.6 ± 0.2 | mtlA (CD630_23340) relative expression [9]: 0.7 ± 0.4 | sigT (csfT; CD630_06770) relative expression [9]: 1.2 ± 0.2 | sigU (csfU; CD630_18870) relative expression [9]: 0.8 ± 0.1 | vanZ1 (CD630_12400) relative expression [9]: 0.6 ± 0.1 | growth (in words) [10]: grew better than the parent strain | CD630_02840 relative expression (C. difficile clnR mutant [11]): 2.2 ± 0.5 | cstA (CD630_26000) relative expression (C. difficile clnR mutant [11]): 2.3 ± 0.5 | grdA (CD630_23520) relative expression (C. difficile clnR mutant [11]): 1.4 ± 0.1 | mtlA (CD630_23340) relative expression (C. difficile clnR mutant [11]): 1.2 ± 0.7 | sigT (csfT; CD630_06770) relative expression (C. difficile clnR mutant [11]): 2.3 ± 1.1 | sigU (csfU; CD630_18870) relative expression (C. difficile clnR mutant [11]): 2.0 ± 0.6 | vanZ1 (CD630_12400) relative expression (C. difficile clnR mutant [11]): 13.4 ± 5.8 | Doubling time (C. difficile 630Δerm [12]; [22]): 91.5 ± 5.7 min | Doubling time (C. difficile 630Δerm [12]; [15]): 90.7 ± 7.9 min | Doubling time (C. difficile 630Δerm [12]; [16]): 70.2 ± 3.9 min | Doubling time (C. difficile 630Δerm [12]; [17]): 67.7 ± 4.9 min | Doubling time (C. difficile 630Δerm [12]; [18]): 69.9 ± 3.4 min | Doubling time (C. difficile 630Δerm [12]; [19]): 70.3 ± 5.5 min | Doubling time (C. difficile 630Δerm [12]; 0.5 µg/ml LL-37, base MM): 82.2 ± 5.1 min | CD630_02840 relative expression (C. difficile 630Δerm [13]): 29.3 ± 18.8 | grdA (CD630_23520) relative expression (C. difficile 630Δerm [13]): 16.5 ± 10.5 | iorA (CD630_23810) relative expression (C. difficile 630Δerm [13]): 16.8 ± 8.4 | mtlA (CD630_23340) relative expression (C. difficile 630Δerm [13]): 1.0 ± 0.3 | sigU (csfU; CD630_18870) relative expression (C. difficile 630Δerm [13]): 10.5 ± 6.8
